Data reported in US20210214303A1, “SCORPION VENOM BENZOQUINONE DERIVATIVES AND USES THEREOF” (priority 2018, published 2021).
≈ marks a conversion by molar mass, not a printed value. Entries after “also recorded” stand apart in the source; their conditions may differ. Where two headings read alike, the source gives them in different places.

Legend:
[1] = system: Mycobacterium tuberculosis; format: cell-based; conditions: electron microscopy
[2] = system: Staphylococcus aureus ATCC 29213; assay: Minimum inhibitory concentration, Table 1, strain ATCC 29213; format: cell-based; conditions: for sensitive/resistant (growth): ATCC 29213; for MIC: ATCC29213, Staphylococcus aureus ATCC 29213; as to sensitive/resistant (growth): key: S Sensitive (did not grow the crop); R resistant (bacterial growth)
[3] = intratracheal treatment of healthy mice, lung histology; format: in vivo; conditions: 8 μg intratracheally for one month
Description: FIGS. 21C-21F illustrate representative micrographs of lung (hematoxylin-eosin staining, 250× magnification) from the untreated group (FIG. 21C) showing extensive areas of pneumonia (asterisk). […] A representative micrograph of a healthy mouse treated intratracheally for one month with 8 μg of the blue 1,4 benzoquinone is shown in FIG. 21E.
The bactericidal activity of the blue compound was tested against progressive pulmonary tuberculosis using an experimental infection model in BALB/c mice. […] This same dose was administered intratracheally to healthy mice for one month, after which they were sacrificed, and their lungs examined.

[4] = system: Staphylococcus aureus; assay: Time-kill assay; format: cell-based; conditions: for killing of S. aureus: at their MICs
[5] = system: SH-SY5Y (bone marrow neuroblastoma cells); assay: cytotoxicity assay, LDH release; format: cell-based, human; conditions: 1, 5, and 25 μM, 12 hours
Description: Cytotoxicity to PBMCs and to Neoplastic Cells: The cytotoxicity of the 1,4 benzoquinones of the disclosure was tested with peripheral blood mononuclear cells (PBMCs) and various human neoplastic cell lines: A549 (adenocarcinomic lung epithelial cells), Jurkat (T cell leukemia), TE 671 (rhabdomyosarcoma cells) and SH-SY5Y (bone marrow neuroblastoma cells).
PBMCs were obtained from healthy blood donors and isolated by Ficoll-Paque PLUS density gradient centrifugation and resuspended in RPMI-1640 medium supplemented with 10% fetal calf serum. Cells were incubated at 37° C. in 5% CO2 overnight and non-adherent cells were recovered and used for subsequent experiments. The neoplastic cell lines were cultured according to the ATCC guidelines.
For cytotoxicity assays, cells were resuspended in DMEM without phenol red, supplemented with 2% heat-inactivated fetal calf serum. Cells were plated in 96-well polystyrene cell culture plates (2×10^4 to 2×10^5 cells/well depending on the cell type) and incubated at 37° C. in 5% CO2 for 8 hours to promote cell adhesion to the well's surface. The red and blue 1,4 benzoquinones were administered to achieve final concentrations of 1, 5, and 25 μM. Cells were then incubated at 37° C. in 5% CO2 for 12 hours. Following the incubation period, plates were centrifuged at 300×g for 10 minutes and supernatants were harvested to evaluate cell viability with the CytoTox 96@ Non-Radioactive Cytotoxicity Assay (Promega). This assay quantitatively measures lactate dehydrogenase (LDH), a stable cytosolic enzyme that is released upon cell lysis. The released LDH in the culture supernatants was measured with a colorimetric coupled enzymatic assay according to the manufacturer's instructions.

[6] = system: TE671 muscle cells; assay: detection of intracellular reactive oxygen species with DCFH-DA; format: cell-based; conditions: 25 μM, 6 hours
Description: FIG. 16A illustrates the detection of intracellular reactive oxygen species (ROS) using the oxidant-sensing probe dichloro-dihydro-fluorescein diacetate (DCFH-DA). TE671 muscle cells were used. Cells were cultured according to the ATCC guidelines. Before treatment, cells were incubated for one hour with a 10 μM solution of DCFH-DA. After the cells were washed 3×PBS, either the red or blue 1,4 benzoquinone was administered at a concentration of 25 μM. Cells were then incubated at 37° C. in 5% CO2 for 6 hours. Following the incubation period, cells were harvested and evaluated with a Zeiss Axioskop fluorescence microscope using a 485-nm excitation and 530-nm emission filter combination. […] Treatment with hydrogen peroxide (50 μM) was used as positive control.

[7] = system: Mycobacterium tuberculosis MDR strain; assay: colony-forming units after treatment at the MIC; format: cell-based
[8] = system: Mycobacterium tuberculosis H37Rv; assay: microbe, parasite or virus in culture; format: cell-based; conditions: M. tuberculosis H37Rv, broth microdilution

SMILES	sensitive/resistant (growth) ([2]; 0.5 μg/ml)	sensitive/resistant (growth) ([2]; 1 μg/ml)	sensitive/resistant (growth) ([2]; 2 μg/ml)	sensitive/resistant (growth) ([2]; 4 μg/ml)	sensitive/resistant (growth) ([2]; 8 μg/ml)	sensitive/resistant (growth) ([2]; 16 μg/ml)	sensitive/resistant (growth) ([2]; 32 μg/ml)	sensitive/resistant (growth) ([2]; 64 μg/ml)	MIC [2] [µg/mL]	Colony-forming Units (CFU) ([4]; 0 hr incubation, 2 × MIC)	Colony-forming Units (CFU) ([4]; 0 hr incubation, MIC)	Colony-forming Units (CFU) ([4]; 6 hr incubation, 2 × MIC)	Colony-forming Units (CFU) ([4]; 6 hr incubation, MIC)	Colony-forming Units (CFU) ([4]; 12 hr incubation, 2 × MIC)	Colony-forming Units (CFU) ([4]; 12 hr incubation, MIC)	Colony-forming Units (CFU) ([4]; 24 hr incubation, 2 × MIC)	Colony-forming Units (CFU) ([4]; 24 hr incubation, MIC)	killing of S. aureus ([4]; in 6 h) [%]	killing of S. aureus ([4]; in 24 h) [%]	cytotoxic effect on SH-SY5Y cells (LDH release) [5]	also measured
COC1=CC(=O)C(SC)=C(SC)C1=O [blue 1,4 benzoquinone, 5-methoxy-2,3-bis(methylthio)cyclohexa-2,5-diene-1,4-dione]	R	S	S	S	S	S	S	S	1 (≈ 4.34 µM)	339 Colony-forming units per plate	352 Colony-forming units per plate	21 Colony-forming units per plate	45 Colony-forming units per plate	2 Colony-forming units per plate	1 Colony-forming units per plate	0 Colony-forming units per plate	2 Colony-forming units per plate	90	99.9	comparably potent in inducing death	ultrastructural changes in Mycobacterium tuberculosis bacilli [1]: ultrastructural changes were promoted; ultrastructural changes in Mycobacterium tuberculosis bacilli ([1]; listed as blue benzoquinone): ultrastructural changes; pulmonary histology of healthy mice [3]: The pulmonary histology is normal, with the exception of occasional mild inflammatory infiltrates found around venules; also recorded: only minor inflammatory infiltrates found around the venules; lung fibrosis in healthy mice ([3]; trichrome Masson staining): No fibrosis was seen; intracellular reactive oxygen species (oxidation of DCFH-DA) [6]: Intracellular oxidation of the DCFH-DA in cells treated with the 1,4 benzoquinones was observed; killing in comparison to the inoculum bacteria concentration [7]: more than 90%; MIC [8]: 4 µg/mL (≈ 17.4 µM)
COC1=CC(=O)C(SC)=C(OC)C1=O [red 1,4 benzoquinone, 3,5-dimethoxy-2-(methylthio)cyclohexa-2,5-diene-1,4-dione]	R	S	S	S	S	S	S	S	1 (≈ 4.67 µM)	311 Colony-forming units per plate	298 Colony-forming units per plate	9 Colony-forming units per plate	22 Colony-forming units per plate	0 Colony-forming units per plate	3 Colony-forming units per plate	0 Colony-forming units per plate	0 Colony-forming units per plate	90	99.9	comparably potent in inducing death	intracellular reactive oxygen species (oxidation of DCFH-DA) [6]: Intracellular oxidation of the DCFH-DA in cells treated with the 1,4 benzoquinones was observed; MIC [8]: > 160 µg/mL
